Article PMC6121455, “Synthesis and Spectrum of Biological Activities of Novel N-arylcinnamamides” (International Journal of Molecular Sciences, 2018)
In brackets after ≈: the same amount, converted by molar mass. Several values for one entry are separate records, joined by “and”; a condition that tells them apart may be missing. Equal entries are not always repeated. Entries after “also recorded” stand apart in the source; their conditions may differ. Where two headings read alike, the source gives them in different places.

Legend:
[1] = system: M. tuberculosis H37Ra; conditions: cited from earlier work
[2] = system: Fusarium avenaceum (Fr.) Sacc. IMI 319947; assay: In vitro antifungal activity, mycelial growth (MIC); assay type: cell-based; conditions: F. avenaceum mycelial growth
[3] = system: Bipolaris sorokiniana (Sacc.) Shoemaker H-299; assay: as above; assay type: cell-based; conditions: B. sorokiniana mycelial growth; for MIC: Bipolaris sorokiniana
[4] = system: Bipolaris sorokiniana conidium germination; assay: Inhibition of Bipolaris sorokiniana conidium germination; assay type: cell-based; conditions: 48 h, read-out: Inhibition (%) Compared to Negative Control, conidium germination
[5] = system: MRSA SA 630; assay: Synergy effect with clinically used drugs (fractional inhibitory concentration); assay type: cell-based, Staphylococcus aureus; conditions: for Separate MIC: MRSA SA 630, each drug alone in the checkerboard plate; for Combined effect with vancomycin: additivity 0.5 < ΣFIC < 1
[6] = system: THP-1 cells; assay: In vitro antiproliferative assay (WST-1); assay type: cell-based, human; conditions: WST-1, 24 h, highest concentration 30 μM, read-out: Tox IC50 (antiproliferative)
Description: The activity of this enzyme directly correlates with the number of metabolically active cells in the culture. […] Human monocytic leukemia THP-1 cells were used for in vitro antiproliferative assay. […] Cells were passaged at approximately one-week intervals. […] The maximum concentration of DMSO in the assays never exceeded 0.1%. Subsequently, the cells were incubated at 37 °C with 5% CO2 for 24 h. […] The median inhibition concentration values, IC50, were deduced through the production of a dose-response curve. All data were evaluated using GraphPad Prism 5.00 software (GraphPad Software, San Diego, CA, USA).

[7] = system: Staphylococcus aureus; assay: Pre-test subcultivation of aliquots on agar (minimal bactericidal concentration); assay type: cell-based
[8] = system: MRSA SA 3202; assay: In vitro antibacterial evaluation, broth dilution micro-method (MIC); assay type: cell-based, Staphylococcus aureus; conditions: 24 h, read-out: MIC MRSA SA 3202
[9] = system: Nicotiana tabacum var. Samsun; assay: In vivo toxicity against plant cells (leaf injection); conditions: water solutions 1× MIC and 4× MIC injected into leaves, checked visually for 5 weeks
Description: Nicotiana tabacum var. Samsun was used for this test [88].
Nicotiana tabacum var. Samsun was used for this test. […] As the negative control, solutions of DMSO in the same concentration were used. The positive control was 5% DMSO, which should be toxic to the plant cells. The aqueous solutions were injected into the plant leaves by a syringe (needle 27G × ¾”) to fill area approx. 1 cm^2 [88]. The test was made in triplicates in three different plants. The plants were kept in a greenhouse on direct sunlight. The effect of the compounds was visually checked every day for 5 weeks.

[10] = system: MRSA SA 3202; assay: Synergy effect with clinically used drugs (fractional inhibitory concentration); assay type: cell-based, Staphylococcus aureus; conditions: for Separate MIC: MRSA SA 3202, each drug alone in the checkerboard plate; for Combined effect with vancomycin: additivity 0.5 < ΣFIC < 1
[11] = system: MRSA 63718; assay: In vitro antibacterial evaluation, broth dilution micro-method (MIC); assay type: cell-based, Staphylococcus aureus; conditions: 24 h, read-out: MIC MRSA 63718
[12] = system: S. aureus ATCC 29213; assay: Dynamics of antibacterial effect (time-kill curves); assay type: cell-based, Staphylococcus aureus; conditions: 4× MIC, after 8 h; bactericidal = −3log decrease of CFU/mL
[13] = Lipophilicity determination by RP-HPLC (capacity factor k / log k); conditions: C18, isocratic MeOH 72%/H2O 28%
[14] = system: S. aureus ATCC 29213 biofilm formation; assay: Biofilm inhibition assay (crystal violet); assay type: cell-based, Staphylococcus aureus
[15] = system: Staphylococcus aureus ATCC 29213; assay: In vitro antibacterial evaluation, broth dilution micro-method (MIC); assay type: cell-based; conditions: read-out: MIC SA
[16] = system: photosynthetic electron transport (PET) in spinach chloroplasts; assay: Inhibition of photosynthetic electron transport (PET) in spinach chloroplasts (Hill reaction, DCPIP); assay type: biochemical, Spinacia oleracea L.
Description: Chloroplasts were prepared from spinach (Spinacia oleracea L.) according to Masarovicova and Kralova. The inhibition of photosynthetic electron transport (PET) in spinach chloroplasts was determined spectrophotometrically (Genesys 6, Thermo Scientific), using an artificial electron acceptor 2,6-dichlorophenol-indophenol (DCIPP) according to Kralova et al., and the rate of photosynthetic electron transport was monitored as a photoreduction of DCPIP. The measurements were carried out in phosphate buffer (0.02 mol/L, pH 7.2) containing sucrose (0.4 mol/L), MgCl2 (0.005 mol/L), and NaCl (0.015 mol/L). The chlorophyll content was 30 mg/L in these experiments, and the samples were irradiated (~100 W/m^2 with 10 cm distance) with a halogen lamp (250 W) using a 4 cm water filter to prevent warming of the samples (suspension temperature 22 °C). The studied compounds were dissolved in DMSO due to their limited water solubility.

[17] = system: MRSA SA 630; assay: In vitro antibacterial evaluation, broth dilution micro-method (MIC); assay type: cell-based, Staphylococcus aureus; conditions: 24 h, read-out: MIC MRSA SA 630
[18] = system: MRSA 63718; assay: Synergy effect with clinically used drugs (fractional inhibitory concentration); assay type: cell-based, Staphylococcus aureus; conditions: MRSA 63718, each drug alone in the checkerboard plate
[19] = Staphylococcus aureus, ATCC29213, 24 h
[20] = MRSA SA 3202, synergy ΣFIC ≤ 0.5

Compound | MIC ([2]; Fusarium avenaceum) | MIC [3] | Separate MIC [5] | Combined effect with vancomycin ([5]; MRSA SA 630) | IC50 ([6]; Homo sapiens, THP-1, 24 h) [µM] | IC50 [6] [µM] | minimal bactericidal concentrations [7] [× MIC] | MIC [8] [µM] | MIC ([8]; Staphylococcus aureus, MRSA) | Separate MIC [10] | Combined effect with vancomycin ([10]; MRSA SA 3202) | MIC [11] [µM] | MIC ([11]; Staphylococcus aureus, MRSA) | bactericidal effect in time-kill curve assay [12] | log k [13] | MIC ([15]; S. aureus ATCC 29213, 24 h) [µM] | MIC [15, 19] | IC50 [16] [µM] | MIC [17] [µM] | MIC ([17]; Staphylococcus aureus, MRSA) | further results
O=C(Nc1cccc(C(F)(F)F)c1)c1ccc2cccc(O)c2n1 [8-hydroxy-N-(3-trifluoromethylphenyl)quinoline-2-carbox-amide] | – | – | – | – | – | – | – | – | – | – | – | – | – | – | – | – | – | – | – | – | decrease of the viability of M. tuberculosis H37Ra to [1]: 18.8%
CCCCNC(=O)n1c(NC(=O)OC)nc2ccccc21 [BNM, benomyl, reference compound] | 1.94 µM and 0.5 µg/mL | 17.2 µM and 5 µg/mL | – | – | – | – | – | – | – | – | – | – | – | – | – | – | – | – | – | – | inhibition at 5 µg/mL ([4]; 5 μg/mL): 100%; inhibition at 10 µg/mL ([4]; 10 μg/mL): 100%
O=C(/C=C/c1ccccc1)Nc1cccc(C(F)(F)F)c1 [Compound 6, (2E)-3-Phenyl-N-[3-(trifluoromethyl)phenyl]prop-2-enamide] | 54.9 µM and 16 µg/mL | 54.9 µM and 16 µg/mL | 8 µg/mL | additivity | 22 | 22.7 ± 1.73 | ≤ 4 | 27.47 (≈ 8 µg/mL) | 27.5 µM and 8 µg/mL | 16 μg/mL and 8/8 μg/mL and 8 μg/mL | additivity | 27.47 (≈ 8 µg/mL) | 27.5 µM and 8 µg/mL | very close to the bactericidal level | 0.4859 | 27.47 (≈ 8 µg/mL) | 27.5 µM and 8 µg/mL | 189 | 27.47 (≈ 8 µg/mL) | 27.5 µM and 8 µg/mL | MIC [2]: 54.93 µM (≈ 16 µg/mL); in vivo toxicity against plant cells [9]: nontoxic effect; also recorded: no visible influence on the plant tissue; MIC BS [3]: 49.98 to 66.32 µM; lowest concentration which inhibited ≥80% of biofilm formation ([14]; S. aureus ATCC 29213, 48 h): 8 µg/mL
O=C(/C=C/c1ccccc1)Nc1cc(C(F)(F)F)cc(C(F)(F)F)c1 [Compound 13, (2E)-N-[3,5-bis(Trifluoromethyl)phenyl]-3-phenylprop-2-enamide] | 713 µM and 256 µg/mL | 356 µM and 128 µg/mL | 8 µg/mL and 4 µg/mL | additivity | 22 | 22.6 ± 1.88 | ≤ 4 | 22.27 (≈ 8 µg/mL) | 22.3 µM and 8 µg/mL | 32 µg/mL | additivity | 22.27 (≈ 8 µg/mL) | 22.3 µM and 8 µg/mL | bactericidal | 0.981 and 0.9814 | 22.27 (≈ 8 µg/mL) | 22.3 µM and 8 µg/mL | 111 | 22.27 (≈ 8 µg/mL) | 22.3 µM and 8 µg/mL | Combined effect with ciprofloxacin ([5]; MRSA SA 630, synergy ΣFIC ≤ 0.5): synergistic; Combined effect with ciprofloxacin [10, 20]: synergistic; Combined effect with tetracycline [10, 20]: synergistic
CN(C)[C@@H]1C(O)=C(C(N)=O)C(=O)[C@@]2(O)C(O)=C3C(=O)c4c(O)cccc4[C@@](C)(O)[C@H]3C[C@@H]12 [TET, tetracycline, reference compound] | – | – | – | – | – | – | – | – | – | 64 µg/mL | – | – | – | – | – | – | – | – | – | – | Separate MIC [18]: 128 µg/mL
CN[C@H](CC(C)C)C(=O)N[C@H]1C(=O)N[C@@H](CC(N)=O)C(=O)N[C@H]2C(=O)N[C@H]3C(=O)N[C@H](C(=O)N[C@H](C(=O)O)c4cc(O)cc(O)c4-c4cc3ccc4O)[C@H](O)c3ccc(c(Cl)c3)Oc3cc2cc(c3O[C@@H]2O[C@H](CO)[C@@H](O)[C@H](O)[C@H]2O[C@H]2C[C@](C)(N)[C@H](O)[C@H](C)O2)Oc2ccc(cc2Cl)[C@H]1O [VAN, vancomycin, reference compound] | – | – | 1 µg/mL | – | – | – | – | – | – | 1 µg/mL | – | – | – | – | – | – | – | – | – | – | Separate MIC [18]: 2 µg/mL; effect on biofilm formation ([14]; sub-MIC concentrations): induction of biofilm formation
